Broadly, the pIC50 is the IC50 on a negative log10 scale, so that one unit is a factor of ten.

The values below come from BindingDB's records for doi:10.1021/jm200866y (Merck Serono, 2011).

pIC50: −log10 of the molar value.

A short description of the first test: Inhibition of CRTH2-mediated chemotaxis of human eosinophils towards PGD2 after 30 mins by fluorescence counter.
Take `O=C(O)COc1ccc(Cl)cc1C#Cc1ccccc1Cl`: the pIC50 was 6.91.

A short description of the next test: Antagonist activity at CRTH2 in human blood cells assessed as inhibition of PGD2-induced eosinophil cell shape change after 10 mins by flow cytometry. (In general: In flow cytometry, cells or beads pass a laser one at a time.)
`Cc1ccc(S(=O)(=O)N(C)C)cc1C#Cc1cc(Cl)ccc1OCC(=O)O`: the pIC50 is 7.64.
On the same count and under the same terms, the same measure for `O=C(O)COc1ccc(Cl)cc1C#Cc1cccc(Cl)c1`: 5.16; for `Cc1ccc(S(=O)(=O)NC(C)C)cc1C#Cc1cc(Cl)ccc1OCC(=O)O`: 6.60.
In the case of `Cc1ccc(S(=O)(=O)CC(C)C)cc1C#Cc1cc(Cl)ccc1OCC(=O)O`, the pIC50 was 6.92.
As for `Cc1ccc(S(=O)(=O)N2CCCCC2C)cc1C#Cc1cc(Cl)ccc1OCC(=O)O` (centres undefined), the negative logarithm of the IC50 (pIC50) was 6.51.
Same read-out and setting: the same measure for `CCCc1ccc(S(C)(=O)=O)cc1C#Cc1cc(Cl)ccc1OCC(=O)O`: 5.92.
On the same count and under the same terms, the same measure for `CCNS(=O)(=O)c1ccc(C)c(C#Cc2cc(Cl)ccc2OCC(=O)O)c1`: 7.40; for `COCCN(C)S(=O)(=O)c1ccc(C)c(C#Cc2cc(Cl)ccc2OCC(=O)O)c1`: 7.11.
Same read-out and setting: the same measure for `COCCNS(=O)(=O)c1ccc(C)c(C#Cc2cc(Cl)ccc2OCC(=O)O)c1`: 7.06; for `O=C(O)COc1ccc(Cl)cc1C#Cc1ccc2c(c1)S(=O)(=O)c1ccccc1-2`: 5.37; for `O=C(O)COc1ccc(Cl)cc1C#Cc1cccc(S(=O)(=O)CCO)c1`: 6.00.
As to `Cc1ccc(S(=O)(=O)CCCO)cc1C#Cc1cc(Cl)ccc1OCC(=O)O`, the pIC50 was 6.51.
As to `Cc1ccc(S(=O)(=O)C(C)C)cc1C#Cc1cc(Cl)ccc1OCC(=O)O`, the pIC50 was 6.72.
In the case of `CC(C)S(=O)(=O)c1ccc(Cl)c(C#Cc2cc(Cl)ccc2OCC(=O)O)c1`, the pIC50 was 7.17.
Still for that read-out and setting: with `CC(C)S(=O)(=O)c1ccc(F)c(C#Cc2cc(Cl)ccc2OCC(=O)O)c1` the figure was 7.04.
On the same count and under the same terms, with `O=C(O)COc1ccc(Cl)cc1C#Cc1ccc(CO)cc1F` the figure was 6.17.
Still for that read-out and setting: with `CCCS(=O)(=O)c1ccc(C)c(C#Cc2cc(Cl)ccc2OCC(=O)O)c1` the figure was 7.09; with `CS(=O)(=O)c1ccc(Cl)c(C#Cc2cc(Cl)ccc2OCC(=O)O)c1`, 7.59; with `CC(C)c1ccc(S(C)(=O)=O)cc1C#Cc1cc(Cl)ccc1OCC(=O)O`, 6.44.
On to `CN(C)S(=O)(=O)c1cncc(C#Cc2cc(Cl)ccc2OCC(=O)O)c1`, for which the pIC50 is 6.54.
Still for that read-out and setting: with `CCCS(=O)(=O)c1ccc(Cl)c(C#Cc2cc(Cl)ccc2OCC(=O)O)c1` the figure was 7.64; with `Cc1ccc(S(C)(=O)=O)cc1C#Cc1cc(Cl)ccc1OCC(=O)O`, 7.19.
Still for that read-out and setting: the same measure for `CCCS(=O)(=O)c1ccc(F)c(C#Cc2cc(Cl)ccc2OCC(=O)O)c1`: 7.64; for `CCN(Cc1cc(-c2ccc(OC)cn2)ccc1-c1cc(CC(=O)O)ccc1OC)C(=O)C1CC1`: 8.52; for `Cc1ccc(S(=O)(=O)N(C)C(C)C)cc1C#Cc1cc(Cl)ccc1OCC(=O)O`: 6.85.
On the same count and under the same terms, with `Cc1ccc(S(=O)(=O)c2ccccc2)cc1C#Cc1cc(Cl)ccc1OCC(=O)O` the figure was 6.59; with `CS(=O)(=O)c1ccc(F)c(C#Cc2cc(Cl)ccc2OCC(=O)O)c1`, 7.02; with `CCCS(=O)(=O)c1cccc(C#Cc2cc(Cl)ccc2OCC(=O)O)c1`, 6.12.
